# pIC50: −log10 of the molar value.
# Tests used:
# [1] = tested on: MRSA planktonic cells; assay: Checkerboard assay; assay type: cell-based, S. aureus
# Description: (§1) The combinations of LCC with tetracycline and vancomycin were evaluated against MSSA and MRSA, respectively, using a microdilution broth checkerboard assay, according to White and collaborators, adapted with the standard procedure established by the CLSI [51, 54]. The fractional inhibitory concentration (FIC) of the combination between LCC and tetracycline or vancomycin was determined using Mueller–Hinton broth culture medium into 96-well plates, with a final inoculum suspension of 5.0 × 10^5 CFU/mL, incubated at 37 °C for 24 h. After incubation, an aqueous resazurin solution (0.02%) was added to the wells and the FIC values (ratio between the MIC of the drug in combination and the MIC of the drug alone) were determined for each drug (Equations (1) and (2)). The fractional inhibitory concentration index (FICI) was calculated using Equation (3). (1) FICLCC=MIC of drug A in combination/MIC of drug A alone (2) FICD=MIC of drug B in combination/MIC of drug B alone FIC Index (FICI) = FICLCC + FICD(3)
# (§2) The combination was classified as synergistic (FICI ≤ 0.5), indifferent (0.5 < FICI < 4), and antagonistic (FICI ≥ 4). The assays were performed in triplicate in independent experiments.
# [2] = tested on: MSSA planktonic cells; assay: Checkerboard assay; assay type: cell-based, S. aureus
# Description: as §1, §2
# [3] = tested on: KYSE 450 (esophageal); design: method as in PMID 32009586; conditions: read-out: IC50 (proliferation); cited from earlier work
structure (smiles),measurement,setting,value
"COc1c(/C=C/C(=O)c2ccc(O)cc2)ccc(O)c1CC=C(C)C [LCC, licochalcone C]",MIC,"[1]; Staphylococcus aureus, checkerboard, drug alone, read-out: MIC Alone",12.5 mg/L
same,MIC Combined,"[1]; checkerboard, in combination LCC + VAN",6.25 mg/L
same,FICLCC (fractional inhibitory concentration for LCC),[1]; combination LCC + VAN,0.5
same,MIC,"[2]; Staphylococcus aureus, checkerboard, drug alone",12.5 mg/L
same,MIC Combined,"[2]; checkerboard, in combination LCC + TC",3.12 mg/L
same,FICLCC (fractional inhibitory concentration for LCC),[2]; combination LCC + TC,0.25
same,pIC50,[3],4.55
